# Reference: publication PMC10253817, “Design, Pharmacological Characterization, and Molecular Docking of Minimalist Peptidomimetic Antagonists of α4β1 Integrin” (International Journal of Molecular Sciences, 2023)
# Columns and labels:
# [1] = system: ERK1/2; assay: Western blot, FN-induced ERK1/2 phosphorylation in Jurkat E6.1 cells; type: cell-based; conditions: Jurkat E6.1 cells pre-treated with 10^−7, 10^−8, 10^−9 M, then FN (10 µg/mL) 30 min
# Experimental: (§1) To this purpose, Jurkat E6.1 cells were pre-treated with different concentrations (10^−7, 10^−8, 10^−9 M) of the compounds and then exposed to FN (10 µg/mL) for 30 min. […] In addition, the effects observed on intracellular signaling were concentration-dependent, except for compound 13 on AKT activation.
# (§2) Western blot analysis was performed as previously described, with the following modifications. […] For integrin antagonists, JurkatE6.1 cells were subsequently incubated with FN (10 μg/mL) at 37 °C for 30 min. At the end of the incubation period, Jurkat E6.1 cells were lysed on ice using T-PER® (Tissue Protein Extraction Reagent, Life Technologies Italia, Milan, Italy), supplemented with a phosphatase inhibitor cocktail. Protein extracts were quantified using a BCA Protein Assay (Pierce, Rockford, IL, USA). The proteins from the cytoplasmatic extract were denatured at 95 °C for 3 min, then equal amounts of protein samples (30–50 μg) were loaded and separated via 12% SDS-PAGE. Proteins were transferred onto a nitrocellulose membrane (Biorad, Hercules, CA, USA), which was blocked with 5% nonfat milk in a Tris-buffered saline (10 mM Tris-HCl, pH 8, containing 150 mM NaCl) containing 0.1% Tween 20 for 1 h at room temperature. Membranes were stained overnight at 4 °C with anti-actin antibody (1:5000, Merck Life Science, Milan, Italy) or with anti-phospho-ERK1/2, anti-total ERK1/2, anti-phospho-AKT, anti-total-AKT, or anti-phospho-JNK antibodies (1:1000; Cell Signaling Technology, Danvers, MA, USA). The membranes were incubated with anti-rabbit peroxidase-conjugated secondary antibodies at a dilution of 1:8000. Blots were developed with a SuperSignal West Pico chemiluminescent substrate. Protocols for digital image acquisition and analysis have previously been described.
# [2] = biological target: T1, α5β1 integrin (Homo sapiens, UniProt P05556+P08648); assay: α5β1 integrin-mediated K562 cell adhesion to FN; type: cell-based; conditions: K562 cell adhesion to FN (10 μg/mL)
# T1 construct: K562 cells, mainly expressing α5β1, which shares a β1 subunit with the heterodimer α4β1; host or cells: K562 (PMA-treated)
# T1 sequence (P08648 42-894 limits assumed): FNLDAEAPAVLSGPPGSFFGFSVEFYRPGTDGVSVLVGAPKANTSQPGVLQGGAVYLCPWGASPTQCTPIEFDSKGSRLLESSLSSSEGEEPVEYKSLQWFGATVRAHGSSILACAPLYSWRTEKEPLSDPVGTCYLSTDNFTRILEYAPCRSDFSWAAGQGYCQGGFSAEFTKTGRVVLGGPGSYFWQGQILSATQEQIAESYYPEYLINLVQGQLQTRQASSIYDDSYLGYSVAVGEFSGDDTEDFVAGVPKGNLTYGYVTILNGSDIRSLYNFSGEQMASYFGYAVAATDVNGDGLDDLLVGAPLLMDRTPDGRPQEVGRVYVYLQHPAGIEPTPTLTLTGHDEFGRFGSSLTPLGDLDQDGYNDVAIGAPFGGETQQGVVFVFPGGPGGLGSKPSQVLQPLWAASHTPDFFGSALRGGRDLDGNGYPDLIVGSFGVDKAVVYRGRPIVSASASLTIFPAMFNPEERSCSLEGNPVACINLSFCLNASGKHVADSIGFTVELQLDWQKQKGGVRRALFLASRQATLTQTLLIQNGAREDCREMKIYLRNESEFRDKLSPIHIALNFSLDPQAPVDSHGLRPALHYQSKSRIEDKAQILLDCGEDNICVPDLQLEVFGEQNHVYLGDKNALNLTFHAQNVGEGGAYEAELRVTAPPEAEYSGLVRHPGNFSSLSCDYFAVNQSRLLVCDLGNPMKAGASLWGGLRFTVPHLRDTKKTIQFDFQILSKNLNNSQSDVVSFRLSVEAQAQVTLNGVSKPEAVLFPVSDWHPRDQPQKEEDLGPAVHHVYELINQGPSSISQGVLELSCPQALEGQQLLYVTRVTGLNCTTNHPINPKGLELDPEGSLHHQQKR
# T1 sequence (P08648 895-1049 partner limits assumed): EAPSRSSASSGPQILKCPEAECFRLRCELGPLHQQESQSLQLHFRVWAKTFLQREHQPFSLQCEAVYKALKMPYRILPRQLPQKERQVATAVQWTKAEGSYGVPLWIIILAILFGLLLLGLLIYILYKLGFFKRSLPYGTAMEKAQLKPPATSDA
# T1 sequence (P05556 21-798): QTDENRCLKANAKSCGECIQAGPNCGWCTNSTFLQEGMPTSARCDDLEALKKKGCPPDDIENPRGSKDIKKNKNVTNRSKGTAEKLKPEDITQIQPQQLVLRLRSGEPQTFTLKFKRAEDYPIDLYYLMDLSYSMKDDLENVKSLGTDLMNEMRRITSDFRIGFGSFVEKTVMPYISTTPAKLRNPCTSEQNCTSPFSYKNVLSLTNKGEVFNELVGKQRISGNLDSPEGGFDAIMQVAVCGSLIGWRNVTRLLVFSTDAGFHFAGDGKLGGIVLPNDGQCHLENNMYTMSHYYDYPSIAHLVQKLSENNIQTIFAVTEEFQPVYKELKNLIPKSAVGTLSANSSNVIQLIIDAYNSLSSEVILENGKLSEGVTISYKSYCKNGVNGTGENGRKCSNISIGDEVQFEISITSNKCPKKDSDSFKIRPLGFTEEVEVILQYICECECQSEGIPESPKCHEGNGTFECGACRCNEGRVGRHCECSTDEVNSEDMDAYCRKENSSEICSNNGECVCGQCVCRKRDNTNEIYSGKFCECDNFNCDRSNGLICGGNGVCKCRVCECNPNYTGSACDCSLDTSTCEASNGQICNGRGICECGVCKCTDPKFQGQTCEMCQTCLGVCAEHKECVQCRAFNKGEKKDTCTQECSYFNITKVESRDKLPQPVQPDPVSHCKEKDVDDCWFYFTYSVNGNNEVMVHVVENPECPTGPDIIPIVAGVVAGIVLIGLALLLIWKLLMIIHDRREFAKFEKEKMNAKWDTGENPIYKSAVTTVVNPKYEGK
# Experimental: To this purpose, the ability of the best peptidomimetics to modulate cell adhesion mediated by integrins other than α4β1 was evaluated in HL60 cells, mainly expressing the leukocyte integrin αMβ2, and on K562 cells, mainly expressing α5β1, which shares a β1 subunit with the heterodimer α4β1. […] In contrast, 13 was a moderate promoter of cell adhesion mediated by αMβ2 integrin, behaving as an agonist. Regarding α5β1 integrin, none of the peptidomimetics employed were able to modulate K562 cell adhesion, thus being shown to be completely ineffective toward α5β1 integrin. The reference compound DS-70 was ineffective toward both αMβ2 and α5β1 integrins under the same experimental conditions (Table 3).
# For adhesion assays mediated by α5β1 integrin, K562 cells were pre-treated with PMA (64.85 nM, Merck Life Science, Milan, Italy) for 48 h to enhance α5β1 integrin expression. 96-well plates were coated via passive adsorption with FN (10 μg/mL) overnight at 4 °C; then, the following day, plates were blocked by adding 100 μL/well of a blocking solution (1% BSA in PBS) and incubated for 1 h at 37 °C. K562 cells were counted and preincubated with various concentrations (10^−10–10^−4 M) of the peptides or with the vehicle for 30 min at RT. Then, K562 cells were plated (50,000 cells/well) and incubated at RT for 1 h. The wells were then washed three times with 1% BSA in PBS, and 50 μL of hexosaminidase substrate was added and incubated at RT for 1 h. After the addition of 100 μL of stopping solution (50 mM glycine and 5 mM EDTA, pH 10.4), plates were read at 405 nm in an EnSpire Multimode Plate Reader.
# In both types of adhesion assay, the number of adherent cells was determined via comparison with a standard curve made in the same plate. Experiments were carried out in quadruplicate and repeated at least three times. Data analysis and EC50 or IC50 values were calculated using GraphPad Prism 9.5.1 (GraphPad Software, San Diego, CA, USA).
# Cell culture. Jurkat E6.1 (expressing both α4β1 and αLβ2 integrin), K562 (expressing α5β1 integrin) and HL60 (expressing α Mβ2 integrin) cell lines were purchased from ATCC (Rockville, MD, USA); these cells were routinely cultured in RPMI-1640 (Life Technologies) supplemented with 1% glutamine and 10% fetal bovine serum (FBS). Cells were grown at 37 °C under 5% CO 2 humidified atmosphere. 40 h before the adhesion assays, K562 and HL60 cells were treated with 25 nM or 40 nM phorbol 12 -myristate 13-acetate (PMA; Sigma-Aldrich), respectively, to induced cell differentiation and to increased α5β1 or αMβ2 integrin expression on cell surface (Baiula et al., 2016).
# Cell adhesion assays . Concentration-response curves, obtained from cell adhesion assays performed in […]
# Figure S1. […]
# [3] = system: AKT; assay: Western blot, FN-induced AKT phosphorylation in Jurkat E6.1 cells; type: cell-based; conditions: Jurkat E6.1 cells pre-treated with 10^−7, 10^−8, 10^−9 M, then FN (10 µg/mL) 30 min
# Experimental: as §1, §2
# [4] = biological target: T2, α4β1 integrin (Homo sapiens, UniProt P05556+P13612); assay: LDV-FITC competitive binding on intact Jurkat E6.1 cells; conditions: intact Jurkat E6.1 cells vs. LDV-FITC; mean ± SD
# T2 construct: Jurkat E6.1 cell line, which endogenously expresses α4β1 integrin; host or cells: Jurkat E6.1
# T2 sequence (P13612 34-1032): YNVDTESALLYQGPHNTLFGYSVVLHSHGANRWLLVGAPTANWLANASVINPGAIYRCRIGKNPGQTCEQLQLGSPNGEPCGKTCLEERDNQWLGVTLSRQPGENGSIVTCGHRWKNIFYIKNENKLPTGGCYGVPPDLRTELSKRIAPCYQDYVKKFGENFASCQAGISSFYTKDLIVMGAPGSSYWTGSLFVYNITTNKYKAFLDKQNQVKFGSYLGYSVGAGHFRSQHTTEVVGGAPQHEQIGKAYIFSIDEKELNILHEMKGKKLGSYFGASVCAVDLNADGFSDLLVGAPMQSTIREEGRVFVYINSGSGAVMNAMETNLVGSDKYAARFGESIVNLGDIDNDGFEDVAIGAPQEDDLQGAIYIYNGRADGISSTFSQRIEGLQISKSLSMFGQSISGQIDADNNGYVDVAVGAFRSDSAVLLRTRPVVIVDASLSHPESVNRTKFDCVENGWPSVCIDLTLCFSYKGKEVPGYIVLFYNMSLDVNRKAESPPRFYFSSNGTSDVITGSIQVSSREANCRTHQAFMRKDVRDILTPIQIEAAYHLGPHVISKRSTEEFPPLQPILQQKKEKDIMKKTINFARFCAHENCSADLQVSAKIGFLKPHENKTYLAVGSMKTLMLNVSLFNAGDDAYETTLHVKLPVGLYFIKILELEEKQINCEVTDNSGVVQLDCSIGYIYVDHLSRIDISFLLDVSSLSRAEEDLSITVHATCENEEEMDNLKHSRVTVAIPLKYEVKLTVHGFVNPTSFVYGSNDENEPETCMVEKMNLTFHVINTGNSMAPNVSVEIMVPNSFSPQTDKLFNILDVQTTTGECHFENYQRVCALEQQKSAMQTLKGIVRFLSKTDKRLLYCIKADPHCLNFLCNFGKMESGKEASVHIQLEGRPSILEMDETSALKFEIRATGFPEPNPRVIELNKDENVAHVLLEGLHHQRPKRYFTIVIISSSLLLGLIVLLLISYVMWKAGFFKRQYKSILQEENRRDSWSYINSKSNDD
# T2 sequence (P05556 21-798): as the sequence (P05556 21-798) above
# Experimental: The assays were performed as previously described with the following modifications. Jurkat E6.1 cells were resuspended (50,000 cells/sample) in 0.1% BSA in a HEPES buffer (NaCl 110 mM; KCl 10 mM; Glucose 10 mM; MgCl2 1 mM; CaCl2 1.5 mM; HEPES 30 mM; pH 7.4) and pre-incubated with different concentrations (10^−11–10^−5 M) of compounds for 20–30 min at RT. Then, LDV-FITC (5 µM) was added to the cells, and they were incubated in the dark for an additional 30 min at RT. At the end of the incubation with LDV-FITC, cells were washed with 0.1% BSA in a HEPES buffer. The FITC fluorescence intensity was measured using an EnSpire Multimode Plate Reader (PerkinElmer, Waltham, MA, USA). The data were plotted as LDV-FITC specific bindings versus the concentration of the competitor, and the data were fitted to a one-site competition equation; the equilibrium dissociation constant Ki was calculated from the IC50 using the Cheng–Prusoff equation.
SMILES,FN-induced ERK1/2 phosphorylation [1],IC50 [2] [nM],FN-induced AKT phosphorylation [3],Ki [4] [nM]
CCCNC(=O)[C@@H](CC(=O)NCC(=O)O)NC(=O)Cc1ccc(NC(=O)Nc2ccccc2C)cc1 [compound 8],significantly prevented,> 5000,significantly prevented,1.9 ± 0.8
Cc1ccccc1NC(=O)Nc1ccc(CNC(=O)C[C@@H](C)NC(=O)CC(=O)O)cc1 [compound 13],significantly prevented,> 5000,significantly prevented,16.7 ± 5.2
CC(=O)N[C@@H](CNC(=O)Cc1ccc(NC(=O)Nc2ccccc2C)cc1)C(=O)NCC(=O)O [compound 3],significantly prevented,> 5000,significantly prevented,1.3 ± 0.7
